ChEMBL document CHEMBL1201862, “PubChem BioAssay data set” (2004)
Active and inactive are the calls of the source.

Key:
[1] = Shn3 3'UTR reporter inhibitors, dose response, cell-based, Clone20 osteoblasts, firefly luciferase, cherry-picked (AID 624132); type: functional;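 further: firefly luciferase luminescence from reporter carrying the Shn3 3'UTR in osteoblasts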
[2] = HepG2 cell cytotoxicity, dose response, cytotoxicity control for Shn3 inhibitor project, CellTiter-Glo, cherry-picked (AID 624134); type: functional, cell-based
[3] = control 3'UTR Renilla luciferase suppression, dose response, counter-screen for Shn3 inhibitor project, cell-based, Clone20-Shn3RL, cherry-picked (AID 624133); type: functional
Coagulation factor XII = target: T1, Coagulation factor XII (Homo sapiens, UniProt P00748); type: functional;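 further: activated factor XIIa alpha cleaving a fluorogenic AMC peptide substrate; inhibitor potency from loss of enzyme activity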
T1 sequence (P00748 whole entry): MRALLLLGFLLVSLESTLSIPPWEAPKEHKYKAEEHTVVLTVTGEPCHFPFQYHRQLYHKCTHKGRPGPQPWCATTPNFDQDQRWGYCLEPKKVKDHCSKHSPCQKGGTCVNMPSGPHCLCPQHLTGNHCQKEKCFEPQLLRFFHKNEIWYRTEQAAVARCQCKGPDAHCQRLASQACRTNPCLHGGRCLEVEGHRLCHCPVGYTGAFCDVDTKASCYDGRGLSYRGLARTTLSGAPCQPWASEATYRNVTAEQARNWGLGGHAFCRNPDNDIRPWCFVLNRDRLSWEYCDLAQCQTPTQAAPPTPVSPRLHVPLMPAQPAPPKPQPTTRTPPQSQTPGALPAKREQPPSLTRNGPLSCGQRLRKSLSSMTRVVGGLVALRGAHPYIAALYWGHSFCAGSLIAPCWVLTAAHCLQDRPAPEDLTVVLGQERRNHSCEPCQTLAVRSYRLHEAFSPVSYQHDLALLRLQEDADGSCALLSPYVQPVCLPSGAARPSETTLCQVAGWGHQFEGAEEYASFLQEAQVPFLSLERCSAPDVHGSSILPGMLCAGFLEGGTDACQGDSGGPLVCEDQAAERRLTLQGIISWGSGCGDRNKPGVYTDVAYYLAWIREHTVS

[4] = target: T2, Corticotropin-releasing factor receptor 2/Corticotropin-releasing factor-binding protein (Homo sapiens, UniProt P24387+Q13324); experiment: Dose Response confirmation of uHTS hits for small molecule antagonists of the CRF-binding protein and CRF-R2 receptor complex.; type: functional; conditions: read-out: IC50_Mean
T2 sequence (Q13324 whole entry): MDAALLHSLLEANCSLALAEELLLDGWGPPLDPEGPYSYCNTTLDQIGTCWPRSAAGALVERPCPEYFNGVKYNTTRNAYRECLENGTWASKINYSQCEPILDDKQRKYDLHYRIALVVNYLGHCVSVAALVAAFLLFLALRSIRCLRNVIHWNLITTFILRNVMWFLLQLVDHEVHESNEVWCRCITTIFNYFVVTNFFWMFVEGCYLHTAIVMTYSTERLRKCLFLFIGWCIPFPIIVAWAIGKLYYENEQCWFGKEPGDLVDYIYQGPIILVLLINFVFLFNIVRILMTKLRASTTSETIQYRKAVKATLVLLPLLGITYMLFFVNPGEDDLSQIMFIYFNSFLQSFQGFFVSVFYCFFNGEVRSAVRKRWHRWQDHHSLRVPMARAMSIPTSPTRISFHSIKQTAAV
T2 sequence (P24387 whole entry): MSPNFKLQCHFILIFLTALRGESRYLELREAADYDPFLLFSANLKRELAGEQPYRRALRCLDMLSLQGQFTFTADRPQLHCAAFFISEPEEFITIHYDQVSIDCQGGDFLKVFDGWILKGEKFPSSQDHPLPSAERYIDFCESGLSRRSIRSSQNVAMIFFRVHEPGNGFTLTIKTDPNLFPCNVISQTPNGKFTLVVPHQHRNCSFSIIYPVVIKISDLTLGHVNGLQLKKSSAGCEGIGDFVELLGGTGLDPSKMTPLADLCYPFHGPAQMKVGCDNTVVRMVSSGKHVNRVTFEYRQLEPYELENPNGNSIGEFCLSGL

[5] = target: T2, Corticotropin-releasing factor receptor 2/Corticotropin-releasing factor-binding protein; experiment: activators of CRF receptor 2 with binding protein – uHTS hits, confirmation (AID 602473); type: functional; conditions: read-out: EC50_Mean
[6] = CRF-BP/CRF-R2 complex antagonists, dose response, cell-based, uHTS hits, 384-well (AID 651639); type: functional, Homo sapiens; conditions: read-out: IC50_Mean
Cytochrome P450 2D6 = Cytochrome P450 2D6 (Homo sapiens, UniProt P10635);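 further: CYP2D6 member of a cytochrome P450 panel assay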
Cytochrome P450 2D6, sequence (P10635 whole entry): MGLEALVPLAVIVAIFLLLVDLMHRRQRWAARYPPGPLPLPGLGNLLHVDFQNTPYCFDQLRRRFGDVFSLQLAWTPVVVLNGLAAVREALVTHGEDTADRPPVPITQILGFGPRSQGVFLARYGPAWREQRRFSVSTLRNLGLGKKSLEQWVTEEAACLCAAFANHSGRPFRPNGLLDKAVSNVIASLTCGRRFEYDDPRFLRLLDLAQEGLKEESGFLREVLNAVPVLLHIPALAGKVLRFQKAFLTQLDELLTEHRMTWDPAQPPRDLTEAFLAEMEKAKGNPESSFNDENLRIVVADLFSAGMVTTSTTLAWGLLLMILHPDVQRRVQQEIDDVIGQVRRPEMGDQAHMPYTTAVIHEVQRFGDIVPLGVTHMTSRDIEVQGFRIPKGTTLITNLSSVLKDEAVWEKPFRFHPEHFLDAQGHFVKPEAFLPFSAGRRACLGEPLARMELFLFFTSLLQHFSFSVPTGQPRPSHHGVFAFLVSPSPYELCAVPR

[7] = system: Streptococcus sp. 'group A'; experiment: growth inhibition of control SK(-) GAS strain, dose response, counter-screen for streptokinase expression inhibitor project, luminescence, kanamycin, BacTiterGlo, confirmation (AID 1900); type: functional, organism-based
Streptokinase A = target: T3, Streptokinase A (Streptococcus pyogenes serotype M1, UniProt P10520); experiment: S. pyogenes streptokinase expression inhibitors, potency, dose response, plasminogen activation absorbance, OD405 (AID 1914); type: functional, Streptococcus pyogenes M1 GAS;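 further: secreted streptokinase activity via plasminogen activation per viability signal from cell pellet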
T3 sequence (P10520 whole entry): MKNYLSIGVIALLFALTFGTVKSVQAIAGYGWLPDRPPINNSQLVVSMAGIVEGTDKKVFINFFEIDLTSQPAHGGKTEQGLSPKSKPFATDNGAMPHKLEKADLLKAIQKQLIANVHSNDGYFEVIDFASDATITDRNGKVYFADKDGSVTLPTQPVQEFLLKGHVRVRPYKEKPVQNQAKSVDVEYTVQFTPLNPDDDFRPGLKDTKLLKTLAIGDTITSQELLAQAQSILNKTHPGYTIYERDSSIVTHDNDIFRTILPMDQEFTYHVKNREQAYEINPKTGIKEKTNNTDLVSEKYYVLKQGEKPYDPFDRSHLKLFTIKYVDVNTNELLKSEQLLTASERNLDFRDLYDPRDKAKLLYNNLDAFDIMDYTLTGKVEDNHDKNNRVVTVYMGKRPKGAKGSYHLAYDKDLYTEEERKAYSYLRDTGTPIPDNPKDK

[8] = target: T4, Calpain-2 catalytic subunit (Sus scrofa, UniProt P43367); experiment: pig calpain II inhibitor potency, dose response, biochemical, fluorogenic peptide substrate (AID 1420); type: functional
T4 sequence (P43367 whole entry): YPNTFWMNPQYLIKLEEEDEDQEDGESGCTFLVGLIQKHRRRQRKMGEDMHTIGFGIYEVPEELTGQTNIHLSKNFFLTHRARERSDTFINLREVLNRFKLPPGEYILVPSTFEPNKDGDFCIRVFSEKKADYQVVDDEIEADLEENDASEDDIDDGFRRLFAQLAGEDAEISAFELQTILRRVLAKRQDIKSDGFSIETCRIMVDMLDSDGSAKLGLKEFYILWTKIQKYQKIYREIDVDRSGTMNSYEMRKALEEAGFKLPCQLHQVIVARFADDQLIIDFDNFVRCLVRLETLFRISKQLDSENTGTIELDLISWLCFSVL

Streptococcus = experiment: Group A Streptococcus viability loss, dose response, counter-screen for streptokinase expression inhibitor project, luminescence, BacTiterGlo (AID 1915); type: functional, organism-based;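 further: potency for reduction of bacterial viability or growth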
X-box-binding protein 1 = target: T5, X-box-binding protein 1 (Homo sapiens, UniProt P17861); type: functional, Cricetulus griseus;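 further: confirmatory dose-response counter-screen serving a CHOP assay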
T5 sequence (P17861 whole entry): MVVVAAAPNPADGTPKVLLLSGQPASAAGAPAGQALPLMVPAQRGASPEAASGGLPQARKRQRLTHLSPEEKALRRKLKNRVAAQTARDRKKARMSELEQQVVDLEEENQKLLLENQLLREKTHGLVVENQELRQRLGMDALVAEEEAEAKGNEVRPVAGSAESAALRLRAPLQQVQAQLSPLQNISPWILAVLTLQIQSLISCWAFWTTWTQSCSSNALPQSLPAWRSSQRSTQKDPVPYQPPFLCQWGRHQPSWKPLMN

[9] = target: Heat shock protein HSP 90-alpha (Homo sapiens, UniProt P07900); type: functional, organism-based
INS1 = experiment: beta cell apoptosis inhibitors, cytokine rescue, dose response, luminescence, retest (AID 449756); type: functional, cell-based; conditions: Rattus norvegicus;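 further: cell death triggered by IL-1 beta plus TNF-alpha plus IFN-gamma mixture; protective hits raise ATP signal compared with cytokine alone wells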
Genome polyprotein = Genome polyprotein (dengue virus type 2, UniProt P29990); experiment: Dengue-2 NS5 methyltransferase inhibitors, primary screen, biochemical, confirmation dose response (AID 588689); type: functional
Genome polyprotein, sequence (P29990 2492-3391 limits assumed): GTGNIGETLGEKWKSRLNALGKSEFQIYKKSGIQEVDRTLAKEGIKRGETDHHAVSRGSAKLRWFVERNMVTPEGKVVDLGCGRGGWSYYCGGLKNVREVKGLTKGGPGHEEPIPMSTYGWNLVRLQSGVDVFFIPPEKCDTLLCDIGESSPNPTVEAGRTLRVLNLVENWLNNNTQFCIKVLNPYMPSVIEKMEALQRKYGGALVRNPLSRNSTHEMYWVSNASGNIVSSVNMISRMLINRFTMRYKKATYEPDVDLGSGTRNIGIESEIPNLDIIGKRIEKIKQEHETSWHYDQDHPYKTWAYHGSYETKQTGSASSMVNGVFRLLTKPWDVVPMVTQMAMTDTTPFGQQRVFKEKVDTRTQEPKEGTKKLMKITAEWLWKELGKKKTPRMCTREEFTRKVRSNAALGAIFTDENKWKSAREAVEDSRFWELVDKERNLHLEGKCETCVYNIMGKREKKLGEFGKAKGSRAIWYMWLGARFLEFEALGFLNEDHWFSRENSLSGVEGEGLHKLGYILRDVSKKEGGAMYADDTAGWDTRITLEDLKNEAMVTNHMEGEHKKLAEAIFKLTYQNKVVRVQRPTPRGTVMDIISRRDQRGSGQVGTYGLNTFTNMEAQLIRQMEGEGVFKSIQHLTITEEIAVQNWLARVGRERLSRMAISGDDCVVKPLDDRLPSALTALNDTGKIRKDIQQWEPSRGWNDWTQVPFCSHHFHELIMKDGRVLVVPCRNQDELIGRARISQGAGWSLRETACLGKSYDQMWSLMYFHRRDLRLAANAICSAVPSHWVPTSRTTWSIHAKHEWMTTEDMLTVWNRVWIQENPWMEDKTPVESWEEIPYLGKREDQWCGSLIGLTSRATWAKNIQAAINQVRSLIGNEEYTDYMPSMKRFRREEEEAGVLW

[10] = inhibitors of intracellular T. cruzi replication, confirmation, NIH3T3 host cells, beta-gal luminescence (AID 2044); type: functional, cell-based;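 further: intracellular parasites grown in NIH/3T3 mouse fibroblasts as host cells; luminescent beta-galactosidase reporter signal from transgenic T. cruzi replicating inside host cells; inhibitors lower the luminescence signal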
[11] = target: T6, RNA-binding protein pos-1 (Caenorhabditis elegans, UniProt G5EF15); experiment: inhibitors of POS-1/mex-3 RNA binding, dose response, biochemical, fluorescence polarization (AID 1964);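 further: purified POS-1 fused to maltose binding protein made in E. coli; potency of compounds blocking POS-1 binding to fluorescent RNA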
T6 sequence (G5EF15 whole entry): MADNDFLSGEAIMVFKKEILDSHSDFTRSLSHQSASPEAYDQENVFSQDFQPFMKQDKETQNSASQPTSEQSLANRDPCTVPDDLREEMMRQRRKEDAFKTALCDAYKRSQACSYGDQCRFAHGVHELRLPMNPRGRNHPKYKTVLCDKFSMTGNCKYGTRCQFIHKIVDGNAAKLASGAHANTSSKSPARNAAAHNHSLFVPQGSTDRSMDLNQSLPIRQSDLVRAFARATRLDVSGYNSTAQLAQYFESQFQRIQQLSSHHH

[12] = target: T7, Zinc finger protein mex-5 (Caenorhabditis elegans, UniProt Q9XUB2); experiment: MEX-5/TCR-2 RNA interaction inhibitors, dose response, biochemical, C. elegans, fluorescence polarization (AID 1960)
T7 sequence (Q9XUB2 whole entry): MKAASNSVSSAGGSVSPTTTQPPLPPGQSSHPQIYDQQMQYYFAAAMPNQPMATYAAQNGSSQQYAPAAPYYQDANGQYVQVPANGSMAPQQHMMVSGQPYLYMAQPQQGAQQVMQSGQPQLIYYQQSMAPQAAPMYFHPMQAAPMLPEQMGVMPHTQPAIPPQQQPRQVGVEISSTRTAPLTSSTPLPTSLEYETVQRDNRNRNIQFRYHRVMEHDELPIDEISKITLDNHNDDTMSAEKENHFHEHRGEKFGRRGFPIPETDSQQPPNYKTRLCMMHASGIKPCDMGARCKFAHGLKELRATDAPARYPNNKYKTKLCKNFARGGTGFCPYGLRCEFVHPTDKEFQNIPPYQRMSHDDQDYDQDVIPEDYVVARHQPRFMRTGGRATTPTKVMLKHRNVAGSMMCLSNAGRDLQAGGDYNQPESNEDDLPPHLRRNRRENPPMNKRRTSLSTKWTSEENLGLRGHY

[13] = target: T8, Rac GTPase-activating protein 1 (Homo sapiens, UniProt Q9H0H5); experiment: MgcRacGAP GTPase-activating activity inhibitors, confirmation, biochemical, ADP Hunter fluorescence, primary and confirmatory (AID 624330); type: functional
T8 sequence (Q9H0H5 whole entry): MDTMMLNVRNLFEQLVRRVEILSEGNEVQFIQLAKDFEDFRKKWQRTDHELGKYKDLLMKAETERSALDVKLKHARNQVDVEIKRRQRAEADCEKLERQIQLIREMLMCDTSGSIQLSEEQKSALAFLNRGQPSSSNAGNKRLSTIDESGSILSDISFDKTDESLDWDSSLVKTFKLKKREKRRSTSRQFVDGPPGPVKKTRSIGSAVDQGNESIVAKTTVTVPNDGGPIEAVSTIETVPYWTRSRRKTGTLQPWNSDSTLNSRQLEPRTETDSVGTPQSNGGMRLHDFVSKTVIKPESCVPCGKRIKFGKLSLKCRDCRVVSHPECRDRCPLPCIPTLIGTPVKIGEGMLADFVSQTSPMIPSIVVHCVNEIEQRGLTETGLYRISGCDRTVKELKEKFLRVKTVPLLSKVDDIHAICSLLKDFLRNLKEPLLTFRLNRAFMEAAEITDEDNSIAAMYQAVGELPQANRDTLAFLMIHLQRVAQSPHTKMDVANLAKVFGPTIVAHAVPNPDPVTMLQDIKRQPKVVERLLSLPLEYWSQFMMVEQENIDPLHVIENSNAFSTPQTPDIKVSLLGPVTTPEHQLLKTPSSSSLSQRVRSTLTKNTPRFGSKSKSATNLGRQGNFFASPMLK

COc1cccc(CNc2ncnc3cc(Cl)ccc23)c1
AC50 [1]: 3.73 µM (active)
AC50 [2]: > 70 µM (inactive)
AC50 [3]: 5.85 µM (active)

Cc1ccc(S(=O)(=O)N(Cc2ccccc2)c2ccccc2C(=O)NCc2ccco2)cc1
IC50 (Coagulation factor XII): > 50 µM (inactive)
IC50 [4]: < 0.368 µM (active)
EC50 [5]: > 53 µM (inactive)
IC50 [6]: 6.81 µM (active)
AC50 (Cytochrome P450 2D6): 15.8 µM (inconclusive)

O=[N+]([O-])c1ccc(NC(S)=NCCc2ccc(Cl)cc2)cc1
EC50 [7]: 2.92 µM (active)
EC50 (Streptokinase A): 18.9 µM (active)
IC50 [8]: 1.82 µM (not active)
EC50 (Streptococcus): 33.2 µM (active)
Absolute IC50 (XBP1) (X-box-binding protein 1): 10 µM
AC50 [9]: 4.1 µM (active)
AC50 (INS1): 7.38 µM (active)

O=C(Nc1ccccc1C(=O)O)c1cccc(C(=O)Nc2ccccc2C(=O)O)c1
IC50 (Genome polyprotein): 54.9 µM (active)

Oc1c(C(Nc2ccccn2)c2cccnc2)cc(Cl)c2cccnc12 (configuration not stated)
EC50 [7]: 4.69 µM (active)
EC50 (Streptokinase A): > 150 µM (not active)
EC50 [10]: 1.64 µM (active)
EC50 (Streptococcus): 9.26 µM (active)
AC50 [9]: 4.19 µM (active)
AC50 (INS1): 2.65 µM (active)

CSc1sccc1/C=C(/C#N)C(=O)c1ccco1
EC50 [11]: > 300 µM (not active)
EC50 [12]: > 300 µM (not active)
IC50 (Genome polyprotein): > 100 µM (active)
IC50 [13]: 22.8 µM (active)

CN(C)/C=C/C(=O)c1ccc2noc(-c3ccccc3)c2c1
AC50 [9]: 2.51 µM (active)

CC(C)c1ccc(Nc2ccc(C(=O)O)cc2[N+](=O)[O-])cc1
IC50 (Genome polyprotein): 70.7 µM (active)

O=[N+]([O-])c1cc(-c2ccccc2)cc([N+](=O)[O-])c1O
IC50 (Genome polyprotein): 58.8 µM (active)
IC50 [4]: 9.96 µM (active)
EC50 [5]: > 53 µM (inactive)
IC50 [6]: > 20 µM (inactive)
